Reference: patent publication US11235041B2, “Peptides and combination of peptides for use in immunotherapy against various cancers” (Immatics Biotechnologies GmbH, priority 2015, dated 2022)

Experiments:
[1] = system: CD8+ T cells of healthy HLA-A*02+ donors; experiment: In vitro T-cell priming assay with artificial antigen presenting cells loaded with peptide/HLA-A*02 complexes and anti-CD28, multimer readout; assay type: cell-based, human; conditions: HLA-A*02 peptides; peptide-specific multimer+ CD8+ T cells after in vitro priming; Table 19B
Source text: FIGS. 4A to 4D show exemplary results of peptide-specific in vitro CD8+ T cell responses of a healthy HLA-A*02+ donor. CD8+ T cells were primed using artificial APCs coated with anti-CD28 mAb and HLA-A*02 in complex with SeqID No 27 peptide (FIG. 4A, left panel), SeqID No 229 peptide (FIG. 4B, left panel), SeqID No 230 peptide (FIG. 4C, left panel) and SeqID No 235 peptide (FIG. 4D, left panel), respectively. After three cycles of stimulation, the detection of peptide-reactive cells was performed by 2D multimer staining with A*02/SeqID No 27 (FIG. 4A), A*02/SeqlD No 229 (FIG. 4B), A*02/SeqlD No 230 (FIG. 4C) or A*02/SeqlD No 235 (FIG. 4D). Right panels (FIGS. 4A, 4B, 4C and 4D) show control staining of cells stimulated with irrelevant A*02/peptide complexes. Viable singlet cells were gated for CD8+ lymphocytes. Boolean gates helped excluding false-positive events detected with multimers specific for different peptides. Frequencies of specific multimer+ cells among CD8+ lymphocytes are indicated.
In order to obtain information regarding the immunogenicity of the TUMAPs of the present invention, the inventors performed investigations using an in vitro T-cell priming assay based on repeated stimulations of CD8+ T cells with artificial antigen presenting cells (aAPCs) loaded with peptide/MHC complexes and anti-CD28 antibody.
In order to perform in vitro stimulations by artificial antigen presenting cells loaded with peptide-MHC complex (pMHC) and anti-CD28 antibody, the inventors first isolated CD8+ T cells from fresh HLA-A*02 leukapheresis products via positive selection using CD8 microbeads (Miltenyi Biotec, Bergisch-Gladbach, Germany) of healthy donors obtained from the University clinics Mannheim, Germany, after informed consent.
PBMCs and isolated CD8+ lymphocytes were incubated in T-cell medium (TCM) until use consisting of RPMI-Glutamax (Invitrogen, Karisruhe, Germany) supplemented with 10% heat inactivated human AB serum (PAN-Biotech, Aidenbach, Germany), 100 U/ml Penicillin/100 μg/ml Streptomycin (Cambrex, Cologne, Germany), 1 mM sodium pyruvate (CC Pro, Oberdorla, Germany), 20 μg/ml Gentamycin (Cambrex). 2.5 ng/ml IL-7 (PromoCell, Heidelberg, Germany) and 10 U/ml IL-2 (Novartis Pharma, Nürnberg, Germany) were also added to the TCM at this step.
Generation of pMHC/anti-CD28 coated beads, T-cell stimulations and readout was performed in a highly defined in vitro system using four different pMHC molecules per stimulation condition and 8 different pMHC molecules per readout condition.
The purified co-stimulatory mouse IgG2a anti human CD28 Ab 9.3 (Jung et al., 1987) was chemically biotinylated using Sulfo-N-hydroxysuccinimidobiotin as recommended by the manufacturer (Perbio, Bonn, Germany). Beads used were 5.6 μm diameter streptavidin coated polystyrene particles (Bangs Laboratories, Illinois, USA).
pMHC used for positive and negative control stimulations were A*0201/MLA-001 (peptide […] (SEQ ID NO. 303) from modified Melan-A/MART-1) and A*0201/DDX5-001 ([…] from DDX5, SEQ ID NO. 304), respectively.
800.000 beads/200 μl were coated in 96-well plates in the presence of 4×12.5 ng different biotin-pMHC, washed and 600 ng biotin anti-CD28 were added subsequently in a volume of 200 μl. Stimulations were initiated in 96-well plates by co-incubating 1×10^6 CD8+ T cells with […] washed coated beads in 200 μl TCM supplemented with 5 ng/ml IL-12 (PromoCell) for 3 days at 37° C. Half of the medium was then exchanged by fresh TCM supplemented with 80 U/ml IL-2 and incubating was continued for 4 days at 37° C. This stimulation cycle was performed for a total of three times. For the pMHC multimer readout using 8 different pMHC molecules per condition, a two-dimensional combinatorial coding approach was used as previously described (Andersen et al., 2012) with minor modifications encompassing coupling to 5 different fluorochromes. […]

[2] = molecular target: HLA-A*02 (Homo sapiens, UniProt P04439, D140Y/D185E/D98H/E176V/E277Q/G131W/G231S/I119V/I121R/I166T/I218V/L300P/N151K/N90K/P208A/P217A/Q86G/Q94H/R138H/R169H); experiment: MHC binding assay: UV-ligand exchange and beta2m ELISA, peptide exchange yield (Table 20); conditions: binding to HLA-A*02; UV-ligand exchange, beta2m ELISA
Source text: Candidate peptides for T cell based therapies according to the present invention were further tested for their MHC binding capacity (affinity). The individual peptide-MHC complexes were produced by UV-ligand exchange, where a UV-sensitive peptide is cleaved upon UV-irradiation, and exchanged with the peptide of interest as analyzed. Only peptide candidates that can effectively bind and stabilize the peptide-receptive MHC molecules prevent dissociation of the MHC complexes. To determine the yield of the exchange reaction, an ELISA was performed based on the detection of the light chain (β2m) of stabilized MHC complexes. The assay was performed as generally described in Rodenko et al. (Rodenko et al., 2006).
96 well MAXISorp plates (NUNC) were coated over night with 2 ug/ml streptavidin in PBS at room temperature, washed 4× and blocked for1h at 37° C. in 2% BSA containing blocking buffer. Refolded HLA-A*02:01/MLA-001 monomers served as standards, covering the range of 15-500 ng/ml. Peptide-MHC monomers of the UV-exchange reaction were diluted 100 fold in blocking buffer. Samples were incubated for 1h at 37° C., washed four times, incubated with 2 ug/ml HRP conjugated anti-β2m for 1h at 37′C, washed again and detected with TMB solution that is stopped with […]. Absorption was measured at 450 nm. Candidate peptides that show a high exchange yield (preferably higher than 50%, most preferred higher than 75%) are generally preferred for a generation and production of antibodies or fragments thereof, and/or T cell receptors or fragments thereof, as they show sufficient avidity to the MHC molecules and prevent dissociation of the MHC complexes.
Table 20: MHC class I binding scores. Binding of HLA-class I restricted peptides to HLA-A*02 was ranged by peptide exchange yield: <20%=+; 20%-49%=++; 50%-75%=+++; >=75%=++++

Peptide exchange (MHC class I binding score, peptide exchange yield) [2]	Substance	Wells positive [%] (in vitro immunogenicity) [1]
++++ (>=75% = ++++)	1 (LLYPEPWSV; listed as Homo sapiens) [compound 1]	++ (20%-49%=++)
++++ (>=75% = ++++)	4 (KLMPGTYTL; listed as Homo sapiens) [compound 4]	+ (<20%=+)
++++ (>=75% = ++++)	92 (GLLFSLRSV; listed as Homo sapiens) [compound 92]	++ (20%-49%=++)
++++ (>=75% = ++++)	14 (ILAKDLFEI; listed as Homo sapiens) [compound 14]	++ (20%-49%=++)
++++ (>=75% = ++++)	12 (GLLPLLHRA; listed as Homo sapiens) [compound 12]	++++ (>=70%=++++)
++++ (>=75% = ++++)	229 (AILAHLNTV; listed as Homo sapiens) [compound 229]	++ (20%-49%=++)
++++ (>=75% = ++++)	249 (GLCERLVSL; listed as Homo sapiens) [compound 249]	+ (<20%=+)
++++ (>=75% = ++++)	248 (YLDRFLAGV; listed as Homo sapiens) [compound 248]	++ (20%-49%=++)
